According to a melting point compilation (Tetko et al.):

Structure (SMILES)	melting point
O=C(O)CSCc1nc2scc(-c3cccs3)c2c(=O)[nH]1	148 to 150 °C
N#CC1(O)CCOCC1	43 to 45 °C
CS(=O)(=O)NCCC1CCCCN1 (stereo not given)	105 to 107 °C
CCc1cccnc1N	38 to 40 °C
OC(CN1CCNCC1)c1ccccc1 (stereo not given)	67 to 69 °C
Cn1cc(C(=O)NCC2CCNCC2)cn1	175 to 177 °C
O=C(CCl)NCCOc1ccccc1	67 to 69 °C
Cn1nc(SCC(=O)O)c(=O)n(C)c1=O	185 to 187 °C
Cc1nn(Cc2ccccc2)c(C)c1C=O	72 to 74 °C
O=c1c2ccccc2nc(S)n1Cc1ccc(Cl)cc1	221 to 223 °C
O=C(O)c1cc(S(=O)(=O)NCc2cccnc2)c(Cl)cc1Cl	245 to 247 °C
CC(=O)c1ccc(OC(C)C(=O)O)cc1 (stereo not given)	158 to 161 °C
Cn1ncc2c1CCCC2=O	89 to 91 °C
CC(C)C1CCC2(CC1)NC(=O)NC2=O (stereo not given)	298 to 300 °C
O=C(O)c1cnc(C2CCCO2)s1 (stereo not given)	139 to 141 °C
Oc1ccc(-c2nc3cc(Cl)ccc3s2)cc1	263 to 265 °C
Nc1nc2c(C(F)(F)F)cccc2s1	48 to 50 °C
Cc1cc(Br)cn2c3c(nc12)CCNC3	165 to 167 °C
NC(Cc1ccccc1)C(=O)Nc1ccccc1 (stereo not given)	76 to 78 °C
CN(CC(=O)NC(C)(C)C)CC(N)=S	123 to 125 °C
Cc1cc(N)ccc1-n1cnnn1	135 to 137 °C
NNC(=O)C(=O)NC1CC1	181 to 183 °C
Cn1c(-c2ccccn2)cccc1=O	66 to 68 °C
Cn1ncnc1-c1ccc(C(=O)O)cc1	240 to 242 °C

Structure (SMILES)	melting point
NCC(O)CS(=O)(=O)c1cccs1 (stereo not given)	111 to 113 °C
NNC(=O)C1CCS(=O)(=O)C1 (stereo not given)	71 to 73 °C
Clc1cc(Cl)c(SSc2cc(Cl)c(Cl)cc2Cl)cc1Cl	140 to 144 °C
CNc1nc2ccccc2o1	99 to 101 °C
COc1ccc(C(CNC(=O)OCC(F)(F)F)N2CCCC2)cc1 (stereo not given)	55 to 57 °C
CC(C)c1cc(C(=O)O)c2cnn(C(C)C)c2n1	144 to 146 °C
N#Cc1cnc2ccccc2c1OCCO	172 to 174 °C
O=C(CCCl)N1CCOCC1	46 to 48 °C
CS(=O)(=O)CCOc1cccc(N)c1	79 to 81 °C
O=C(CCl)NCCC(c1ccccc1)c1ccccc1	104 to 107 °C
CN(c1ccc(-c2csc(N)n2)cc1)S(C)(=O)=O	205 to 207 °C
N#Cc1ncn(CC(N)=O)n1	194 to 196 °C
Cc1cc2oc(=O)cc(CCl)c2cc1C	188 to 190 °C
Cc1cc(O)c([N+](=O)[O-])cc1S(=O)(=O)Cl	63 to 65 °C
O=C1CNc2ccncc2N1	259 to 261 °C
CCOC(=O)/C(=C(\O)CCl)c1nc(C)cs1	76 to 78 °C
CN(C)C(=O)CN1CCNCC1	35 to 37 °C
O=c1[nH]cnc2nc(NCc3ccco3)sc12	279 to 281 °C
O=C(O)c1cccc(S(=O)(=O)NC2CC2)c1	188 to 192 °C
Cc1nn(C(C)(C)C)c(C)c1N	54 to 56 °C
CC(=O)C(Cc1ccccc1)NC(=O)CCl (stereo not given)	73 to 75 °C
O=C(O)CCNC(=O)c1ccc2ccccc2c1	179 to 181 °C
CCCC1CCC(=O)NC1=O (stereo not given)	76 to 78 °C
O=C(O)c1cc(S(=O)(=O)N2CCCCC2)ccc1N1CCCCC1	143 to 145 °C

Structure (SMILES)	melting point
COc1ccc2c(c1)CC(=O)NCC2	151 to 153 °C
O=C(CCl)N1CCNC1=O	195 to 197 °C
N#CCCCS(=O)(=O)c1ccc(C(=O)O)cc1	195 to 197 °C
Nc1ncnc2sc3c(c12)CCCC3	239 to 241 °C
COc1ccc(C(O)CCC(=O)O)cc1 (stereo not given)	92 to 94 °C
Nc1ccc(N2CCC(O)CC2)cc1	171 to 173 °C
Cc1ncc(C=O)n1-c1ccc(Br)cc1	110 to 112 °C
CCOc1cc(C(=O)O)c([N+](=O)[O-])cc1OC	213 to 215 °C
COc1cc(C(=O)O)cc(NS(C)(=O)=O)c1OC	214 to 216 °C
Nc1nc(Cl)c(C=O)c(N2CCCC2)n1	176 to 178 °C
CC1CC(C(=O)O)CCO1 (stereo not given)	44 to 46 °C
O=C(O)Cc1ccc(OCCOc2ccccc2)cc1	169 to 171 °C
Cc1cc(C(=O)O)cc(S(=O)(=O)Cl)c1C	171 to 173 °C
Nc1nnc(C2CCCCC2)o1	222 to 224 °C
Cc1ccc2c(Cl)cc(Cl)c(OCC(=O)O)c2n1	209 to 211 °C
Nc1ccn(Cc2ccncc2)n1	122 to 124 °C
Nc1ccc(-c2n[nH]c(=O)[nH]2)cc1	333 to 335 °C
O=S(=O)(Nc1ccc(O)cc1)c1ccccc1	156 to 158 °C
O=C(Cc1ccccc1)NC1CCNCC1	139 to 141 °C
CCOC(=O)Cn1ncc2ccccc21	34 to 36 °C
O=C(O)c1ccc(Cl)c(S(=O)(=O)N2CCCCC2)c1	218 to 220 °C
Clc1cncc(-n2cncn2)n1	109 to 111 °C
ClCc1nc(-c2ccccn2)no1	102 to 104 °C
O=C1CCC2SCCSC12 (stereo not given)	81 to 83 °C

Structure (SMILES)	melting point
c1ccc(-c2nc[nH]n2)cc1	117 to 119 °C
Nc1nnns1	120 to 122 °C
CC(=O)Nc1scc(-c2cccs2)c1C(=O)O	227 to 229 °C
N[C@H]1CC[C@@H](CO)CC1	144 to 146 °C
Cc1csc(NC(C)C(=O)O)n1 (stereo not given)	189 to 191 °C
Cn1cc(C(=O)O)c(-c2coc3ccccc23)n1	277 to 279 °C
NC(=O)C1CCN(CC(=O)c2ccc(Cl)cc2)CC1	164 to 166 °C
O=C(CN1CCNCC1)Nc1ccc(OC(F)(F)F)cc1	86 to 88 °C
O=c1c2ccccc2nc2n1CCO2	160 to 163 °C
O=C(O)c1cc2c(c(S(=O)(=O)Cl)c1)CCC2	197 to 199 °C
O=C(Nc1nc(-c2ccc(Cl)c(Cl)c2)cs1)C(Cl)c1ccccc1 (stereo not given)	128 to 130 °C
O=C(CCl)NCc1ccc(C(=O)N2CCCC2)cc1	128 to 130 °C
Oc1ccc(Oc2ccc(C(F)(F)F)cn2)cc1	90 to 92 °C
Cc1cc([N+](=O)[O-])c(C)cc1C#N	119 to 121 °C
CCOC(=O)c1noc(-c2cccc(F)c2-n2ccnc2)n1	128 to 130 °C
O=c1c(Cl)c(Cl)cnn1-c1ccc(Cl)cc1Cl	200 to 202 °C
COc1cc2c(cc1OC)CN(C(N)=O)CC2	198 to 200 °C
Cc1csc(=O)[nH]1	98 to 100 °C
O=[N+]([O-])c1cnccc1NC1CC1	105 to 107 °C
O=[N+]([O-])c1ccc(NC2CCCC2)nc1	114 to 116 °C
N#CCC1CC2=C(CCCC2=O)O1 (stereo not given)	104 to 106 °C
CC(=O)c1c[nH]c(C(=O)C(Cl)(Cl)Cl)c1	190 to 192 °C
COc1ccc(N2CCC(N)CC2)cc1	50 to 52 °C
CCc1nn2c(=O)cc(CCl)nc2s1	97 to 99 °C

More lines, now with the values ahead:

melting point	Structure (SMILES)
35 to 37 °C	N#Cc1ccc(Br)cc1C(F)(F)F
178 to 180 °C	CC(=O)c1ccc(S(N)(=O)=O)cc1
150 to 152 °C	O=C(Nc1ccc(F)cc1)NC1CCNC1 (stereo not given)
145 to 147 °C	Cc1ccc(C(N)=O)c(F)c1
235 to 237 °C	Nc1c(Br)c(=O)[nH]c(=O)n1Cc1ccccc1
140 to 142 °C	O=C(NC(CO)C(=O)O)c1cccc(Br)c1 (stereo not given)
163 to 165 °C	NC(=O)c1ccc(F)cc1Br
249 to 251 °C	Cc1cc(C(=O)O)nn1-c1cccc(C#N)c1
115 to 117 °C	O=C(O)CSc1ccccc1Cl
202 to 204 °C	Cn1c(=O)n(CC(=O)O)c2ccccc21
219 to 221 °C	CCc1ccc(C(N)C(=O)O)cc1 (stereo not given)
172 to 174 °C	CN(C(=O)c1ccc(N)cc1Cl)C1CCCCC1
192 to 194 °C	Nc1nnc(-c2cc(F)cc(Br)c2)s1
139 to 141 °C	NS(=O)(=O)c1cc([N+](=O)[O-])ccc1F
59 to 61 °C	N#CCC(=O)c1ccc(F)c(Cl)c1
162 to 166 °C	NS(=O)(=O)c1ccc2c(c1)CCN2
119 to 121 °C	O=C(O)c1ccccc1OCc1ccccc1Cl
167 to 169 °C	Nc1ccc2[nH]c(=O)[nH]c2c1
139 to 141 °C	CCOc1ccc(S(N)(=O)=O)cc1Br
122 to 124 °C	CCNC(=O)Nc1cccc(N)c1
17 to 19 °C	O=Cc1cc(F)cc(F)c1
32 to 34 °C	Cc1ccc(CN)c(S(C)(=O)=O)c1
200 to 202 °C	NS(=O)(=O)Cc1ccc([N+](=O)[O-])cc1Br
153 to 155 °C	Cc1ccc(C(=O)N2CCOCC2)cc1N
173 to 175 °C	O=c1c(Cl)c(Cl)cnn1-c1ccc(F)cc1F

melting point	Structure (SMILES)
94 to 96 °C	CCC(CC)(C(=O)O)c1ccc(Cl)c(Cl)c1
138 to 140 °C	Cc1ccc(S(N)(=O)=O)c(F)c1
119 to 121 °C	O=C(O)c1ccccc1CO
158 to 160 °C	Nc1ccccc1C(=O)Nc1ccc(Cl)cn1
69 to 71 °C	CCOC(=O)C(=O)c1cc(Br)ccc1OC
179 to 181 °C	O=C(O)c1ccc(CS)cc1
211 to 213 °C	O=C1COc2ccc(Cl)cc2N1
169 to 171 °C	O=C(O)c1ccc(F)c(S(=O)(=O)Cc2ncon2)c1
90 to 92 °C	CCS(=O)(=O)c1nc2ccc(N)cc2s1
80 to 82 °C	Nc1nc2c(F)c(Cl)ccc2s1
102 to 104 °C	CNC(=O)c1cccc(N)n1
91 to 93 °C	CSc1c(F)cc(N)cc1F
146 to 148 °C	CCC(O)(C(N)=O)c1ccc(Br)cc1 (stereo not given)
187 to 189 °C	O=C(O)C=Cc1csc(Br)c1
149 to 151 °C	COc1cc(C(=O)O)ccc1NN
132 to 134 °C	O=Cc1ccc([N+](=O)[O-])c(O)c1
147 to 149 °C	Cc1sc(N)nc1-c1ccc(Br)cc1
172 to 174 °C	Cc1cccc(NS(=O)(=O)c2cc(C(=O)O)c(Cl)cc2Cl)c1
78 to 80 °C	CC1(c2cccc(N)c2)NC(=O)NC1=O (stereo not given)
151 to 153 °C	O=C(Nc1ccccc1)c1cccc(O)c1
229 to 231 °C	Cc1nn(-c2ccc(C(=O)O)cc2)c(C)c1Br
104 to 109 °C	O=C(O)Cc1csc(-c2cccc(Cl)c2)n1
126 to 128 °C	CC(C)C(Br)C(=O)Nc1cc(Cl)ccc1Cl (stereo not given)
167 to 169 °C	COc1cccc(-n2cnnc2S)c1
